What follows are molecules tested on Male Zucker Diabetic Fatty rats (assay: In vivo evaluation in Zucker Diabetic Fatty rats). Details: oral gavage b.i.d., 7 days, percent reduction from vehicle control at day 7 relative to normalization (plasma glucose 140 mg/dL).
Parameters: species or system rat
Description: Male Zucker Diabetic Fatty rats were lightly anesthetized with isofluorane gas and bleed by tail vein to obtain postprandial baseline concentrations for plasma glucose, serum lipids and insulin. Animals were baseline matched by plasma glucose and randomized into vehicle or treatment groups with compound administration by oral gavage, b.i.d., beginning at 8.5 weeks of age. Selected compounds were administered as a suspension in 0.5% methylcellulose for 7 consecutive days. Changes in body weight and food consumption were monitored from representative animals from each group, over a 48 hr period. After 7 days of treatment animals were anesthetized, blood samples obtained and analyzed for plasma glucose and lactate, serum triglyceride, total and HDL cholesterol, non-esterified free fatty acids and insulin concentration. Livers were weighed and corrected for body weight. Values in Table 1 for % Glucose reduction represent a summary of the percent reduction from vehicle control animals at day 7 relative to normalization defined in this model as plasma glucose levels of 140 mg/dL.
In the case of `C/C(=C/C(=O)c1ccccc1)N[C@@H](Cc1ccc(OCCc2nc(-c3ccccc3)oc2C)cc1)C(=O)O` [Example 1, (2S)-2{[(Z)-1-methyl-3-oxo-3-phenyl-1-propenyl]amino}-3-{4-[2-(5-methyl-2-phenyl-1,3-oxazol-4-yl)ethoxy]phenyl}propanoic acid], the “% Glucose Reduction” value is reported as 39%.
In the case of `C/C(=C/C(=O)c1ccccc1)N[C@@H](Cc1ccc(OCCc2nc(-c3ccc(C(F)(F)F)cc3)oc2C)cc1)C(=O)O` [Example 7, (2S)-2-{[(Z)-1-methyl-3-oxo-3-phenyl-1-propenyl]amino}-3-[4-(2-{5-methyl-2-[4-(trifluoromethyl)phenyl]-1,3-oxazol-4-yl}ethoxy)phenyl]propanoic acid], the “% Glucose Reduction” value is reported as 34%.
With `C/C(=C/C(=O)c1ccc(F)c(F)c1F)N[C@@H](Cc1ccc(OCCc2nc(-c3ccccc3)oc2C)cc1)C(=O)O` [Example 12, (2S)-2-{[(Z)-1-methyl-3-oxo-3-(2,3,4-trifluorophenyl)-1-propenyl]amino}-3-{4-[2-(5-methyl-2-phenyl-1,3-oxazol-4-yl)ethoxy]phenyl}propanoic acid] the “% Glucose Reduction” value was 61%.
For `C/C(=C/C(=O)c1cc(F)c(F)cc1F)N[C@@H](Cc1ccc(OCCc2nc(-c3ccccc3)oc2C)cc1)C(=O)O` [Example 16, (2S)-2-{[(Z)-1-methyl-3-oxo-3-(2,4,5-trifluorophenyl)-1-propenyl]amino}-3-{4-[2-(5-methyl-2-phenyl-1,3-oxazol-4-yl)ethoxy]phenyl}propanoic acid], the “% Glucose Reduction” value was 59%.
For `CC/C(=C/C(=O)c1ccccc1)N[C@@H](Cc1ccc(OCCc2nc(-c3ccccc3)oc2C)cc1)C(=O)O` [Example 20, (2S)-2-{[(Z)-1-ethyl-3-oxo-3-phenyl-1-propenyl]amino}-3-{4-[2-(5-methyl-2-phenyl-1,3-oxazol-4-yl)ethoxy]phenyl}propanoic acid], the “% Glucose Reduction” value was 50%.
For `Cc1sc(-c2ccc(F)cc2)nc1CCOc1ccc(C[C@H](N/C(=C\C(=O)c2ccccc2)C(F)(F)F)C(=O)O)cc1` [Example 21, (2S)-3-(4-{2-[2-(4-fluorophenyl)-5-methyl-1,3-thiazol-4-yl]ethoxy}phenyl)-2-{[(Z)-3-oxo-3-phenyl-1-(trifluoromethyl)-1-propenyl]amino}propanoic acid], the “% Glucose Reduction” value was 82%.
`CC/C(=C/C(=O)c1ccc(C(F)(F)F)cc1)N[C@@H](Cc1ccc(OCCc2nc(-c3ccc(F)cc3)sc2C)cc1)C(=O)O` [Example 22, (2S)-2-({(Z)-1-ethyl-3-oxo-3-[4-(trifluoromethyl)phenyl]-1propenyl}amino)-3-(4-{2-[2-(4-fluorophenyl)-5-methyl-1,3-thiazol-4-yl]ethoxy}phenyl)propanoic acid] was tested, and the “% Glucose Reduction” value was 49%.
With `CCCC/C(=C/C(=O)c1ccccc1)N[C@@H](Cc1ccc(OCCc2nc(-c3ccccc3)oc2C)cc1)C(=O)O` [Example 23, (2S)-2-{[(Z)-1-butyl-3-oxo-3-phenyl-1-propenyl]amino}-3-{4-[2-(5-methyl-2-phenyl-1,3-oxazol-4-yl)ethoxy]phenyl}propanoic acid] the “% Glucose Reduction” value was 86%.
With `C/C(=C/C(=O)c1ccc(Cl)cc1)N[C@@H](Cc1ccc(OCCc2nc(-c3ccccc3)oc2C)cc1)C(=O)O` [Example 24, (2S)-2-{[(Z)-3-(4-chlorophenyl)-1-methyl-3-oxo-1-propenyl]amino}-3-{4-[2-(5-methyl-2-phenyl-1,3-oxazol-4-yl)ethoxy]phenyl}propanoic acid] the “% Glucose Reduction” value was 45%.
For `CCC/C(=C/C(=O)c1ccccc1)N[C@@H](Cc1ccc(OCCc2nc(-c3ccccc3)oc2C)cc1)C(=O)O` [Example 40], the “% Glucose Reduction” value was 79%.
For `Cc1oc(-c2ccccc2)nc1CCOc1ccc(C[C@H](N/C(=C\C(=O)c2ccccc2)C(F)(F)F)C(=O)O)cc1` [Example 48, (2S)-3-{4-[2-(5-methyl-2-phenyl-1,3-oxazol-4-yl)ethoxy]phenyl}-2{[(Z)-3-oxo-3-phenyl-1-(trifluoromethyl)-1-propenyl]amino}propanoic acid], the “% Glucose Reduction” value was 81%.
